US8841342B2, “Carrier” (Vital Health Sciences Pty. Ltd., priority 2002, dated 2014)

Columns and labels:
[1] = cited from earlier work
[2] = Acute transdermal penetration of 3H-estradiol and 3H-estradiol phosphate in the hairless rat; format: in vivo, female albino hairless rats; settings: 24 hour period
Description: Animals: 6 female albino hairless rats were used in this study (n=3 per treatment group).
Transdermal Formulation Preparation and Application: ^3H-E and ^3H-EP were provided by Vital Health Sciences Pty Ltd and prepared in formula approximately 1 hour before application in the carrier cream from Example 1.
The solvents from both ^3H-E and ^3H-EP were evaporated under a stream of nitrogen. Once completely dry 0.498 g of the carrier cream of example 1 was added to ^3H-E and 0.502 g to ^3H-EP and mixed with a glass rod and centrifuged for 1 minute. This was repeated 5 times.
Each formulation was applied to the dorsal skin of an anaesthetised rat in an area of approximately 4 cm^2 marked with an indelible felt tip marker. […] The formulation was ‘rubbed’ in until it appeared to have been absorbed into the skin, which took between 5 to 10 minutes. A tegaderm (3M) patch was applied to the area to prevent animals from removing the formulation.

[3] = Transdermal delivery of estradiol and estradiol phosphate in ovariectomised hairless rats, total estrogens RIA in plasma
Description: Animals: 23 female albino hairless rats were ovariectomised under isoflurane-induced anaesthesia and allowed to recover for 10 days prior to experimentation.
Blood was collected into EDTA tubes, then centrifuged at 5000 rpm for 10 minutes. Plasma was removed and stored at −80° C. until assayed.
20 μl was transferred to an Eppendorf tube and the solvent was evaporated in a nitrogen stream. Then 0.999 g of the carrier cream from example 1 was added, and mixed with a glass rod and centrifuged. This was repeated 5 times. Final concentration=4.90 μg/ml.
20 μl was transferred to an Eppendorf tube and the solvent was evaporated in a nitrogen stream. Then 1.003 g of the carrier cream from example 1 was added, and mixed with a glass rod and centrifuged. This was repeated 5 times. Final concentration=4.89 μg/ml.
20 μl of these solutions was directly applied to the skin.
Each formulation was applied to the dorsal skin of an anaesthetised rat in an area of approximately 4 cm^2 marked with an indelible felt tip marker. […] The formulation was ‘rubbed’ in until it appeared to have been absorbed into the skin, which took between 5-10 min. […]
The standard curve range for this assay is 2.5-100 pg/ml (r^2=−0.943). Extraction efficiency was determined through a series of spiking assays and was between 90 to 98% using diethyl ether as the extraction solvent for rat plasma and organs. […]

[4] = Transdermal delivery of testosterone and testosterone phosphate in ovariectomised hairless rats, total testosterone in plasma; format: in vivo, Female albino hairless rats; settings: for concentration of testosterone in blood: topical 1 μg in carrier of Example 1
Description: Animals: 12 Female albino hairless rats were ovariectomised under isoflurane-induced anesthesia and allowed to recover for 15 days prior to experimentation.
Plasma was removed and stored at −80° C. until assay.
Testosterone Phosphate (TP): 4.41 mg of TP was dissolved in 15 ml of water and then made up to 100 ml with ethanol. […] This was repeated 5 times.
Testosterone (T): 3.94 mg of T was dissolved in 15 ml of water and then made up to 100 ml with ethanol. […] This was repeated 5 times.

Molecule: C[C@]12CC[C@@H]3c4ccc(O)cc4CC[C@H]3[C@@H]1CC[C@@H]2O [E, estradiol]
- mean blood levels of estradiol 24 hours post dose ([1]; 3 mg daily over 30 cm2, carrier with padimate O, 4 women, 9 days): 0.053 ± 0.007 ng/mL
- improvement of circulating estradiol from baseline ([1]; baseline 13±5 pg/ml): 4 fold

Molecule: C[C@]12CC[C@@H]3c4ccc(O)cc4CC[C@H]3[C@@H]1CC[C@@H]2OP(=O)(O)O [EP, estradiol 3:phosphate]
- levels in epidermis and dermis [2]: Higher levels of EP were found in the epidermis and dermis
- plasma concentration of the hormone, EP versus E treatment ([3]; equivalent doses in carrier of Example 1, over 24 hours): at least twice the plasma concentration of the hormone compared to the E treatment
- inflammatory symptoms (erythema, oedema) at the application site ([3]; topical in carrier cream of Example 1): neither E or EP treatment produced any inflammatory symptoms

Molecule: testosterone phosphate [TP]
- concentration of testosterone in blood [4]: increased

Molecule: C[C@]12CC[C@H]3[C@@H](CCC4=CC(=O)CC[C@@]43C)[C@@H]1CC[C@@H]2O [T, testosterone]
- concentration of testosterone in blood [4]: increased
- maximum concentration of total testosterone in plasma (mean±SD) ([4]; topical 1 μg in carrier of Example 1, baseline subtracted): 30.90 ± 11.00 pg/mL
